Laboratory results reported in patent US20250170108A1, “CHEMOTHERAPY FOR CANCER USING AZABICYCLO COMPOUND” (TAIHO PHARMACEUTICAL CO., LTD., priority 2017, published 2025).

Legend:
[1] = Body weight change ratio in MC38 transplanted model (Example 1); type: in vivo, mouse
Experimental: (§1) An electronic balance for animals was used for body weight measurement. The body weight change ratio on the nth day (BWCn) was calculated from the body weight on the nth day (BWn) in accordance with the following equation.
(§2) An appropriate amount of water for injection described in the Japanese Pharmacopeia was added for adjusting hypromellose concentration to 0.5 w/v %, and the mixture was then stirred with a stirrer to completely dissolve hypromellose, to prepare a 0.5% aqueous hypromellose solution. Compound 1 was ground with an agate mortar, and then suspended to a predetermined concentration with the 0.5% aqueous hypromellose solution, and ultrasonic treatment was performed to obtain a homogeneous suspension. The suspension containing Compound 1 was orally administered once a day over 5 consecutive days at a dose of 10 mg/kg/day or 14 mg/kg/day, followed by cessation of administration for 2 days, and these processes were repeated three times.
(§3) The anti-mouse PD-1 antibody (anti-mPD-1 Ab) was prepared by diluting InVivoMab anti-mouse PD-1 (CD279) (Clone: RMP-1-14, Bio X cell Co.) to a predetermined concentration with Otsuka Normal Saline immediately before administration. On the first day of administration (day 1), the diluted product was intraperitoneally administered as the anti-mouse PD-1 antibody at a dose of 0.05 mg/body.

[2] = system: tumor infiltrating leucocytes (CD8 positive cells, regulatory T-cells); test: Immunostimulatory action: flow cytometric analysis of tumor infiltrating lymphocytes in MC38 transplanted model (Example 2); type: in vivo, mouse
Experimental: Mouse bowel cancer cell line MC38 was cultured using a RPMI1640 (Waco Pure Chemical Industries, Ltd.) medium containing 10% FBS. MC38 was subcultured at a ratio of 1:5 to 1:10 once or twice a week in an incubator with 5% CO2 at 37° C.
A cell suspension with a concentration of 2×10^6 cells/0.1 mL was transplanted subcutaneously in the vicinity of the right backmost rib bone of a 6-week-old C57BL/6NJCrI mouse (Charles River Laboratories Japan Inc.).
The tumor was grown until reaching a tumor volume (TV) of 110 to 360 mm^3 after the transplantation. Degimatic Caliper was used for tumor diameter measurement. The major diameter and the minor diameter of the tumor were measured, and TV was calculated from the following equation.
By a stratified random allocation method using TV as an index, 5 animals were allocated to each group. The day when grouping (n=5) was performed was defined as Day 1.
Agents prepared by the same method as described in Example 1 were used for administration. Anti-mouse PD-1 antibody (anti-mPD-1 Ab), CD279(PD-1)Monoclonal Antibody (RMP1-14), eBioscience (Thermo Fisher Scientific), was used as an anti-mouse PD-1 antibody, and intraperitoneally administered at a dose of 0.05 mg/body on the first day of administration (Day 1). Compound 1 was orally administered at a dose of 14 mg/kg/day once a day on Days 1-5 and 8-9.
For detecting expression of immunity-related factors, flow cytometric analysis was performed for immunological monitoring. On Day 10, the tumor was sampled, and tumor infiltrating lymphocytes were then prepared using Tumor Dissociation Kit, mouse (Miltenyi Biotec). Thereafter, the antibody was stained using FoxP3/Transcription Factor Staining Buffer Set (thermo Fisher Scientific), and analysis was then performed using Flow Cytometer FACSVerse (BD Bioscience). […]

[3] = system: mouse bowel cancer cell line MC38; test: Antitumor effect of Compound 1 and anti-mouse PD-1 antibody in bowel cancer cell transplanted model (Example 1); type: in vivo; conditions: for RTV Day 22 (mean ± SD): MC38 transplanted mice; for T/C (%): Day 22
Experimental: (§4) Mouse bowel cancer cell line MC38 was obtained from Dr. Yoshihiro Hayakawa (University of Toyama, Toyama, Japan), and cultured in a RPMI1640 (Sigma-Aldrich) medium (culture solution) containing 10% fetal bovine serum (FBS). MC38 was subcultured at a ratio of 1:3 to 1:5 once or twice a week in an incubator with 5% CO2 at 37° C.
(§5) A cell suspension with a concentration of 2×10^6 cells/0.1 mL was transplanted subcutaneously in the vicinity of the right backmost rib bone of a 6-week-old C57BL/6JJcI mouse (CLEA Japan, Inc.).
(§6) The tumor was grown until reaching a tumor volume (TV) of 50 to 300 mm^3 after the transplantation. Degimatic Caliper was used for tumor diameter measurement. The major diameter and the minor diameter of the tumor were measured, and TV was calculated from the following equation.
(§7) By a stratified random allocation method using TV as an index, 6 animals were allocated to each group. The day when grouping (n=6) was performed was defined as Day 0.
(§8) The relative tumor volume (RTV) and the relative tumor volume change ratio (T/C) were calculated from TV.
RTV and T/C were calculated from the following equation.
as §2, §3

[4] = Body weight change ratio in MC38 transplanted model (Example 3); type: in vivo, mouse; conditions: Compound 1 14 mg/kg/day p.o. days 1-5, 8-12, 15-19
Experimental: as §1
The same procedure as described in Example 1 was carried out except that the anti-mouse PD-L1 antibody or the anti-CTLA-4 antibody was used instead of the anti-mouse PD-1 antibody.
The anti-mouse PD-L1 antibody (anti-mPD-L1 Ab) was prepared by diluting InVivoMab anti-mouse PD-L1 (B7-H1) (Clone: 10F.9G2, Bio X cell Co.) to a predetermined concentration with Otsuka Normal Saline immediately before administration. On the first day of administration (day 1), the diluted product was intraperitoneally administered using the anti-mouse PD-L1 antibody at a dose of 0.05 mg/body. The anti-mouse CTLA-4 antibody (anti-mCTLA-4 Ab) was prepared by diluting InVivoMab anti-mouse CTLA-4 (CD152) (Clone: 9H10, Bio X cell Co.) to a predetermined concentration with Otsuka Normal Saline immediately before administration. On the first day of administration (day 1), the diluted product was intraperitoneally administered using the anti-mouse CTLA-4 antibody at a dose of 0.05 mg/body.

[5] = system: mouse bowel cancer cell line MC38; test: Antitumor effect of Compound 1 and anti-mouse PD-L1 or anti-mouse CTLA-4 antibody in bowel cancer cell transplanted model (Example 3); type: in vivo
Experimental: as §4, §5, §6, §7, §8, §2
The same procedure as described in Example 1 was carried out except that the anti-mouse PD-L1 antibody or the anti-CTLA-4 antibody was used instead of the anti-mouse PD-1 antibody. […]

[6] = Compound 1 10 mg/kg/day p.o. days 1-5, 8-12, 15-19
[7] = Compound 1 14 mg/kg/day p.o. days 1-5, 8-12, 15-19
[8] = Day 10, Compound 1 14 mg/kg/day p.o. Days 1-5 and 8-9, Dunnett test

For `CCc1cc(C(N)=O)ccc1-n1nc(C(C)C)c2c(-n3cnc(-c4cnn(C)c4)c3)ccnc21` [Compound 1, 3-ethyl-4-{3-isopropyl-4-(4-(1-methyl-1H-pyrazol-4-yl)-1H-imidazol-1-yl)-1H-pyrazolo[3,4-b]pyridin-1-yl}benzamide], the “BWC(%) Day 22 Mean” value [1, 6] was 13.5%, the “BWC(%) Day 22 Mean” value [1, 7] was 12.8% and the “ratio of CD8 positive cells in leucocytes (CD45 positive cells) as compared to the control group” value [2, 8] was “significantly higher”. For the same compound, the “ratio of regulatory T-cells in T-cells as compared to the control group” value [2, 8] was “significantly lower”, the immunostimulatory activity ([2]; conclusion from Example 2) was “shows immunostimulatory activity” and the “RTV on Day 22 as compared to the control group” value ([3]; Aspin-Welch's t-test, Example 1) was “significantly lower RTV”. For the same compound, the “RTV Day 22 (mean ± SD)” value [3, 6] was 7.93 ± 1.29, the “RTV Day 22 (mean ± SD)” value [3, 7] was 5.59 ± 0.92 and the “T/C (%)” value [3, 6] was 41.7%. The “T/C (%)” value [3, 7] was 29.4%, the “BWC(%) Day 22 Mean” value [4] was 6.63% and the “RTV on Day 22 as compared to the control group” value ([5]; Aspin-Welch's t-test, Example 3) was “significantly lower RTV”. The “RTV Day 22 (mean ± SE)” value ([5]; Compound 1 14 mg/kg/day p.o. days 1-5, 8-12, 15-19, MC38 transplanted mice) was 8.32 ± 0.51 and the “T/C (%)” value ([5]; Day 22, Compound 1 14 mg/kg/day p.o. days 1-5, 8-12, 15-19) was 49.7%.
